Measurements reported in ChEMBL document CHEMBL6087454, “Identification of Novel Organo-Se BTSA-Based Derivatives as Potent, Reversible, and Selective PPARγ Covalent Modulators for Antidiabetic Drug Discovery” (J Med Chem, 2025).
The source made the active and inactive calls. The calls are words filed in the database; no cut-off is given here.

Assays:
[1] = tested on: 3T3-L1; experiment: Insulin sensitizing activity in mouse 3T3-L1 cells assessed as downregulation of SOCS3 gene expression at 1 uM measured after 48 hrs by RT-qPCR analysis; format: functional, cell-based
[2] = species: Homo sapiens; experiment: Binding affinity to PPAR-beta (unknown origin) at 0.5 uM in presence of fluormone pan-PPAR green tracer by TR-FRET assay
[3] = molecular target: T1, Peroxisome proliferator-activated receptor gamma (Homo sapiens, UniProt P37231); experiment: Binding affinity to recombinant GST-tagged human PPAR-gamma ligand binding domain (E235 to Y505 residues) extracted from Escherichia coli BL21 (DE3) cells assessed as inhibition constant in presence of fluormone pan-PPAR green tracer by TR-FRET assay
T1 sequence (P37231 whole entry): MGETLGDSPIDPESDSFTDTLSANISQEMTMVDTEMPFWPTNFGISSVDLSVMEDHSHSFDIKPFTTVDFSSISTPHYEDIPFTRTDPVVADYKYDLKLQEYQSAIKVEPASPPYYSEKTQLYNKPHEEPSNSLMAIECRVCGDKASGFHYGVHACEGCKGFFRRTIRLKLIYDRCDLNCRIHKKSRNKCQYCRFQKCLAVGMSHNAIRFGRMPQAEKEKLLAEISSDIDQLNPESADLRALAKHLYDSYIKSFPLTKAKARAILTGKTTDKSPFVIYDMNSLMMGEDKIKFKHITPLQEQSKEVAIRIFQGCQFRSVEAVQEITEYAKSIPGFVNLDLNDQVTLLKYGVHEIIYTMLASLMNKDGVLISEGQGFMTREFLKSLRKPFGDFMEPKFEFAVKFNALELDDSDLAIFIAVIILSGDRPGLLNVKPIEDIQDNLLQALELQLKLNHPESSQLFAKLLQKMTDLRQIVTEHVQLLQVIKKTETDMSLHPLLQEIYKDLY

[4] = tested on: 3T3-L1; experiment: Insulin sensitizing activity in mouse 3T3-L1 cells assessed as upregulation of Glut4 gene expression at 1 uM measured after 48 hrs by RT-qPCR analysis; format: functional, cell-based
[5] = Toxicity in male db/db mouse model assessed as increase in lipid accumulation in liver at 2.5 to 10 mg/kg/day, ip administered for 4 weeks by Oil red O staining based analysis; format: organism-based; settings: in vivo, 672 h, dose 2.5-10 mg/kg/day
[6] = tested on: Mus musculus; experiment: Antidiabetic activity in male db/db mouse model assessed as upregulation of adiponectin gene expression in liver at 2.5 to 10 mg/kg/day, ip administered for 4 weeks by RT-qPCR analysis; format: functional, organism-based; settings: dose 2.5-10 mg/kg/day
[7] = tested on: Mus musculus; experiment: Antidiabetic activity in male db/db mouse model assessed as downregulation of SOCS3 gene expression in white adipose tissue at 2.5 to 10 mg/kg/day, ip administered for 4 weeks by RT-qPCR analysis; format: functional, organism-based; settings: dose 2.5-10 mg/kg/day
[8] = tested on: 3T3-L1; experiment: Inhibition of adipogenesis in mouse 3T3-L1 cells assessed as downregulation of C/EBPalpha gene expression at 1 uM measured after 48 hrs by RT-qPCR analysis; format: functional, cell-based
[9] = tested on: Mus musculus; experiment: Antidiabetic activity in male db/db mouse model assessed as upregulation of Glut4 gene expression in liver at 2.5 to 10 mg/kg/day, ip administered for 4 weeks by RT-qPCR analysis; format: functional, organism-based; settings: dose 2.5-10 mg/kg/day
[10] = tested on: Mus musculus; experiment: Antidiabetic activity in male db/db mouse model assessed as downregulation of CD36 gene expression in white adipose tissue at 2.5 to 10 mg/kg/day, ip administered for 4 weeks by RT-qPCR analysis; format: functional, organism-based; settings: dose 2.5-10 mg/kg/day
[11] = tested on: Mus musculus; experiment: In vivo inhibition of Erk/Cdk5-mediated PPAR-gamma phosphorylation at Ser273 residue in male db/db mouse model assessed as decrease in phosphorylated-MEK expression in liver at 2.5 to 10 mg/kg/day, ip administered for 4 weeks by Western blotting analysis; format: functional, organism-based; settings: dose 2.5-10 mg/kg/day
[12] = molecular target: T2, Peroxisome proliferator-activated receptor gamma (Homo sapiens) (UniProt P37231); experiment: Partial agonist activity at recombinant GST-tagged human PPAR-gamma ligand binding domain (E235 to Y505 residues) extracted from Escherichia coli BL21 (DE3) cells by TR-FRET assay; settings: filed as partial agonist
T2 sequence (whole entry): T1 sequence (P37231 whole entry)

[13] = tested on: 3T3-L1; experiment: Inhibition of adipogenesis in mouse 3T3-L1 cells assessed as downregulation of aP2 gene expression at 1 uM measured after 48 hrs by RT-qPCR analysis; format: functional, cell-based
[14] = tested on: Mus musculus; experiment: Antidiabetic activity in male db/db mouse model assessed as decrease in PDK4 protein abundance in white adipose tissue at 2.5 to 10 mg/kg/day, ip administered for 4 weeks by Western blotting analysis; format: functional, organism-based; settings: dose 2.5-10 mg/kg/day
[15] = tested on: Mus musculus; experiment: Antidiabetic activity in male db/db mouse model assessed as improvement in glucose tolerance at 2.5 to 10 mg/kg/day, ip preadministered for 4 weeks followed by glucose administration after 4 to 6 hrs of fasting and measured after 120 mins by intraperitoneal glucose tolerance test; format: functional, organism-based; settings: dose 2.5-10 mg/kg/day
[16] = Toxicity in male db/db mouse model assessed as increase in white adipocytes size at 2.5 to 10 mg/kg/day, ip administered for 4 weeks by H and E staining based analysis; format: organism-based; settings: in vivo, 672 h, dose 2.5-10 mg/kg/day
[17] = tested on: 3T3-L1; experiment: Inhibition of adipogenesis in mouse 3T3-L1 cells assessed as downregulation of CD36 gene expression at 1 uM measured after 48 hrs by RT-qPCR analysis; format: functional, cell-based
[18] = tested on: Mus musculus; experiment: Antidiabetic activity in male db/db mouse model assessed as increase in ADIPOQ protein abundance in liver at 2.5 to 10 mg/kg/day, ip administered for 4 weeks by Western blotting analysis; format: functional, organism-based; settings: dose 2.5-10 mg/kg/day
[19] = tested on: 3T3-L1; experiment: Insulin sensitizing activity in mouse 3T3-L1 cells assessed as downregulation of PTP1B gene expression at 1 uM measured after 48 hrs by RT-qPCR analysis; format: functional, cell-based
[20] = tested on: Mus musculus; experiment: Antidiabetic activity in male db/db mouse model assessed as downregulation of aP2 gene expression in liver at 2.5 to 10 mg/kg/day, ip administered for 4 weeks by RT-qPCR analysis; format: functional, organism-based; settings: dose 2.5-10 mg/kg/day
[21] = Toxicity in male db/db mouse model assessed as increase in brown adipocytes size at 2.5 to 10 mg/kg/day, ip administered for 4 weeks by H and E staining based analysis; format: organism-based; settings: in vivo, 672 h, dose 2.5-10 mg/kg/day
[22] = Toxicity in male db/db mouse model assessed as body weight gain at 2.5 to 10 mg/kg/day, ip administered for 4 weeks; format: organism-based; settings: in vivo, 672 h, dose 2.5-10 mg/kg/day
[23] = tested on: 3T3-L1; experiment: Insulin sensitizing activity in mouse 3T3-L1 cells assessed as upregulation of adiponectin gene expression at 1 uM measured after 48 hrs by RT-qPCR analysis; format: functional, cell-based
[24] = tested on: Mus musculus; experiment: Antidiabetic activity in male db/db mouse model assessed as increase in ANGPTL4 protein abundance in liver at 2.5 to 10 mg/kg/day, ip administered for 4 weeks by Western blotting analysis; format: functional, organism-based; settings: dose 2.5-10 mg/kg/day
[25] = tested on: Mus musculus; experiment: Antidiabetic activity in male db/db mouse model assessed as decrease in PDK4 protein abundance in liver at 2.5 to 10 mg/kg/day, ip administered for 4 weeks by Western blotting analysis; format: functional, organism-based; settings: dose 2.5-10 mg/kg/day
[26] = tested on: Mus musculus; experiment: Antidiabetic activity in male db/db mouse model assessed as increase in Glut4 protein abundance in white adipose tissue at 2.5 to 10 mg/kg/day, ip administered for 4 weeks by Western blotting analysis; format: functional, organism-based; settings: dose 2.5-10 mg/kg/day
[27] = tested on: Mus musculus; experiment: Downregulation of PPAR-gamma protein expression in male db/db mouse white adipose tissue at 2.5 to 10 mg/kg/day, ip administered for 4 weeks by Western blotting analysis; format: functional, organism-based; settings: dose 2.5-10 mg/kg/day

SMILES: Cc1ccc(S(=O)(=O)Oc2ccc(S3(=O)=N[Se]c4cc(OS(=O)(=O)c5ccc(C)cc5)ccc43)cc2)cc1 (configuration not stated)
- Activity [1]: Active
- Activity [2]: inactive
- Ki [3]: 124 nM
- Activity [4]: Active
- Activity [5]: Non-toxic
- Activity [6]: Active
- Activity [7]: Active
- inhibition [8]: Active
- Activity [9]: Active
- Activity [10]: Active
- inhibition [11]: Active
- Activity [12]: Active
- inhibition [13]: Active
- Activity [14]: Active
- Activity [15]: Active; Superior To That Of Reference Compound Gw9662
- Activity [16]: Non-toxic
- inhibition [17]: Active
- Activity [18]: Active
- Activity [19]: Active
- Activity [20]: Active
- Activity [21]: Non-toxic
- Activity [22]: Non-toxic
- Activity [23]: Active
- Activity [24]: Active
- Activity [25]: Active
- Activity [26]: Active
- Activity [27]: Active
